Source: patent US10392368B2, “Pyrazolo and triazolo bicyclic compounds as JAK kinase inhibitors” (THERAVANCE BIOPHARMA R&D IP, LLC, priority 2017, dated 2019)

Key:
JAK1 = molecular target: T1, JAK1 (Homo sapiens, UniProt P23458); test: Biochemical JAK1 kinase assay (LanthaScreen); settings: for Ki: read-out: JAK 1 (pKi) (converted)
T1 construct: GST; purchased Life Technologies
Method in brief: (§1)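 TR-FRET readout (520/495 nm) using Tb-labelled pTyr701 antibody after EDTA stop, following 1 h ATP-started phosphorylation of GFP-STAT1 by recombinant GST-JAK. Compounds preincubated 1 h with enzyme and substrate; pIC50 from 4-parameter fit, Cheng-Prusoff gives pKi.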

JAK3 = molecular target: T2, JAK3 (Homo sapiens, UniProt P52333); test: Biochemical JAK3 kinase assay (LanthaScreen); design: GST; purchased Life Technologies; settings: for Ki: read-out: JAK 3 (pKi) (converted)
T2 sequence (P52333 1-1124): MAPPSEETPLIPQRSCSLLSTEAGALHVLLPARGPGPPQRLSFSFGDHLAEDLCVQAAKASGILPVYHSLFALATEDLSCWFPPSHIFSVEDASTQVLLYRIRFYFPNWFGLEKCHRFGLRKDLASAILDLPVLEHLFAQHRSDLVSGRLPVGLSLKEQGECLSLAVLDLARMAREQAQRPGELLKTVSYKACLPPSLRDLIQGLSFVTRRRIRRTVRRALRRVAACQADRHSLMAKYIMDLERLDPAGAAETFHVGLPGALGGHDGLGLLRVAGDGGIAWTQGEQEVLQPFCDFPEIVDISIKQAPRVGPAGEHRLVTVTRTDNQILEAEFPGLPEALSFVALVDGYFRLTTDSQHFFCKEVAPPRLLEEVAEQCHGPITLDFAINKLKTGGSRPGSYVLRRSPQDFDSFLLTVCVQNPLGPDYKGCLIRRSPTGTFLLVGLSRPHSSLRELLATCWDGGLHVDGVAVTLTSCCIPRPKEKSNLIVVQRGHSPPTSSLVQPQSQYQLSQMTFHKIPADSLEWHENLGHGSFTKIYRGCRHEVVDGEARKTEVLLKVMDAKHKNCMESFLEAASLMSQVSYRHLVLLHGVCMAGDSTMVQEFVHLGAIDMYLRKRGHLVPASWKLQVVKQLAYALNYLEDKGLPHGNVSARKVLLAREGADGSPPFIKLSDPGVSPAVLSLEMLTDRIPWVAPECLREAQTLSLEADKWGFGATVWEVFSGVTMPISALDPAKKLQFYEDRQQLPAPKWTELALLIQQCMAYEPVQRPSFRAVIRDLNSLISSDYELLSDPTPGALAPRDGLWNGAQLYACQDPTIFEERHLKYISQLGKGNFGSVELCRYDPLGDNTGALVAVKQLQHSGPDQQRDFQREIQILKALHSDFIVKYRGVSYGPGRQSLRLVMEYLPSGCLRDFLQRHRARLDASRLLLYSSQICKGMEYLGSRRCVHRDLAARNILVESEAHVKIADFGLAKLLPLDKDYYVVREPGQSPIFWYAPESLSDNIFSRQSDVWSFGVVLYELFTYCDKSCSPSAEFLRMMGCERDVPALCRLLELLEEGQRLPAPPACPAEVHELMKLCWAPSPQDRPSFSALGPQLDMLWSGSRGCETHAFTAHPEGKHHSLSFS
Method in brief: as §1

JAK2 = molecular target: T3, JAK2 (Homo sapiens, UniProt O60674); test: Biochemical JAK2 kinase assay (LanthaScreen); settings: for Ki: read-out: JAK 2 (pKi) (converted)
T3 construct: GST; purchased Life Technologies
Description: (§2) A panel of four LanthaScreen JAK biochemical assays (JAK1, 2, 3 and Tyk2) were carried in a common kinase reaction buffer (50 mM HEPES, pH 7.5, 0.01% Brij-35, 10 mM MgCl2, and 1 mM EGTA). Recombinant GST-tagged JAK enzymes and a GFP-tagged STAT1 peptide substrate were obtained from Life Technologies.
(§3) Serially or discretely diluted compounds were pre-incubated with each of the four JAK enzymes and the substrate in white 384-well microplates (Corning) at ambient temperature for 1 h. ATP was subsequently added to initiate the kinase reactions in 10 μL total volume, with 1% DMSO. […] Kinase reactions were allowed to proceed for 1 hour at ambient temperature before a 10 μL preparation of EDTA (10 mM final concentration) and Tb-anti-pSTAT1 (pTyr701) antibody (Life Technologies, 2 nM final concentration) in TR-FRET dilution buffer (Life Technologies) was added. The plates were allowed to incubate at ambient temperature for 1 h before being read on the EnVision reader (Perkin Elmer).
(§4) For dose-response analysis, percent inhibition data were plotted vs. compound concentrations, and IC50 values were determined from a 4-parameter robust fit model with the Prism software (GraphPad Software). Results were expressed as pIC50 (negative logarithm of IC50) and subsequently converted to pKi (negative logarithm of dissociation constant, Ki) using the Cheng-Prusoff equation.

[1] = tested on: IL-2 stimulated pSTAT5 in Tall-1 T cells; test: Cellular JAK3 potency assay: inhibition of IL-2 stimulated pSTAT5 in Tall-1 T cells; assay type: cell-based, human; settings: for IC50: Homo sapiens, TALL-1, IL-2 stimulated pSTAT5 in Tall-1 T cells, read-out: Tall-1 (pIC50) (converted)
Method in brief: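 In human Tall-1 T cells, IL-2 (300 ng/ml final, 30 min) drives STAT5 phosphorylation after a 1 h compound pretreatment. Lysates are assayed for pSTAT5 by AlphaLisa, and IC50 derived from signal versus concentration is expressed as pIC50.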

Tyk2 = molecular target: T4, Tyk2 (Homo sapiens, UniProt P29597); test: Biochemical Tyk2 kinase assay (LanthaScreen); settings: for Ki: read-out: Tyk 2 (pKi) (converted)
T4 construct: GST; purchased Life Technologies
Description: as §2
as §3, with “Elmer). Emission ratio signals (520 nm/495 nm) were recorded and utilized to calculate the percent inhibition values based on DMSO and background controls.” for “Elmer).”
as §4

[2] = selectivity: difference of pKi JAK3 and pKi JAK1
[3] = IL-2 stimulated pSTAT5 in Tall-1 T cells
[4] = selectivity JAK3 over JAK1, difference of pKi
[5] = IL-2 stimulated pSTAT5, Tall-1 T cells

T1 sequence (P23458 whole entry): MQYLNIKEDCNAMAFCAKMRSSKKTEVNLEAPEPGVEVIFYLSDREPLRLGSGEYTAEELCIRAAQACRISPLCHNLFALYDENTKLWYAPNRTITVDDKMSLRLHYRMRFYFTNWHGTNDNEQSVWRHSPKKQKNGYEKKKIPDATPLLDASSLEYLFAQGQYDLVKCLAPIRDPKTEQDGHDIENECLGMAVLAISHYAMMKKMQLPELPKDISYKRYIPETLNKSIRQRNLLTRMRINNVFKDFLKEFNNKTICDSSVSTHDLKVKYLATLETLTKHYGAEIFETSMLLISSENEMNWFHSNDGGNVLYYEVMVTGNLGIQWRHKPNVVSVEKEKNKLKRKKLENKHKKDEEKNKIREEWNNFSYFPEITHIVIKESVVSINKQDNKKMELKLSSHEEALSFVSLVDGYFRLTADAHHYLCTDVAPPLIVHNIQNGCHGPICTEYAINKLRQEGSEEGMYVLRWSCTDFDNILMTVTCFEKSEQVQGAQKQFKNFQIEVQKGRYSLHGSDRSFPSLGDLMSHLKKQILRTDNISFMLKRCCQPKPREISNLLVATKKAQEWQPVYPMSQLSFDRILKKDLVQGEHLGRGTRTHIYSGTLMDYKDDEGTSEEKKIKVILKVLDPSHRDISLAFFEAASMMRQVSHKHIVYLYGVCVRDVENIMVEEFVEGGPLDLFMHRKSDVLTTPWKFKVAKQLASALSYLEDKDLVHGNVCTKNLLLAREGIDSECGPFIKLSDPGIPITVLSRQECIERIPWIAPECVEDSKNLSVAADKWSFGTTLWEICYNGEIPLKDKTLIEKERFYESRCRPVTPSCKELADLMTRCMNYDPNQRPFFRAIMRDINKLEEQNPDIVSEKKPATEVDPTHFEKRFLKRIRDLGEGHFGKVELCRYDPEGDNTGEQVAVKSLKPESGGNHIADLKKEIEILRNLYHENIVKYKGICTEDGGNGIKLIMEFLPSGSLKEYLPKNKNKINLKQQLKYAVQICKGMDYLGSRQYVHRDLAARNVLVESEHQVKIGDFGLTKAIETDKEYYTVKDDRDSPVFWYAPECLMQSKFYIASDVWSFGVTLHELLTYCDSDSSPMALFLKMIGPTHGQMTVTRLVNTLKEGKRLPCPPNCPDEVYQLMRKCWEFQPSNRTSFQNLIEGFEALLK
T4 sequence (P29597 whole entry): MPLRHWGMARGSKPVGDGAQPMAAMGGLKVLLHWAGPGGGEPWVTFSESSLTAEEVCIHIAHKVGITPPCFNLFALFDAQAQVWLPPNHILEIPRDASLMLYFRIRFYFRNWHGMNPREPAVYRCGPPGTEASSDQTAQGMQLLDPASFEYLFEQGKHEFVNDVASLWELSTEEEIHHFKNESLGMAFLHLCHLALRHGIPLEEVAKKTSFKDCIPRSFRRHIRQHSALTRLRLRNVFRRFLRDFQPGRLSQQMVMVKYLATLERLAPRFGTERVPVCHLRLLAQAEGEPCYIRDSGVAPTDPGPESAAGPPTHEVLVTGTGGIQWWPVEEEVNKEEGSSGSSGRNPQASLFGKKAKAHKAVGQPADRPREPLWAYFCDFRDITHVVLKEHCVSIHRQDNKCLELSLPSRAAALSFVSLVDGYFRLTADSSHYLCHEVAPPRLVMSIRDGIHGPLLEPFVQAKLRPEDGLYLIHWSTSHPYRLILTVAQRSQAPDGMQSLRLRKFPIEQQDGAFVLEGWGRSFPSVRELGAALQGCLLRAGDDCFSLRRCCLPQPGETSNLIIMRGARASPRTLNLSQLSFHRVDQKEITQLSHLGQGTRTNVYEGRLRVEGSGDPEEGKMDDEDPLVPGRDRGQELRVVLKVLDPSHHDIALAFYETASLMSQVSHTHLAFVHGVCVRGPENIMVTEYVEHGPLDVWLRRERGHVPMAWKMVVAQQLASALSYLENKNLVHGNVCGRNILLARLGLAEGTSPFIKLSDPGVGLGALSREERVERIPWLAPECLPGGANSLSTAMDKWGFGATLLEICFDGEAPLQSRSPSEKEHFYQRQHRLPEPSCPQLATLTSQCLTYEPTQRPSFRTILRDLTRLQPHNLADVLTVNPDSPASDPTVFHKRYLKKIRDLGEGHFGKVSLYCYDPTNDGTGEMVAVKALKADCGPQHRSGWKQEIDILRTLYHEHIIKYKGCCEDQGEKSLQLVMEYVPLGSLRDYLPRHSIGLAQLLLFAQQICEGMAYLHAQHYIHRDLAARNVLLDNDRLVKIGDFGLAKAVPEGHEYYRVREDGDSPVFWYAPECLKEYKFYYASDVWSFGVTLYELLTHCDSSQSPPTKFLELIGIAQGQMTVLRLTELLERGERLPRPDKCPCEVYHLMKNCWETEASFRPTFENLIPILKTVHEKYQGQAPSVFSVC
T3 sequence (O60674 whole entry): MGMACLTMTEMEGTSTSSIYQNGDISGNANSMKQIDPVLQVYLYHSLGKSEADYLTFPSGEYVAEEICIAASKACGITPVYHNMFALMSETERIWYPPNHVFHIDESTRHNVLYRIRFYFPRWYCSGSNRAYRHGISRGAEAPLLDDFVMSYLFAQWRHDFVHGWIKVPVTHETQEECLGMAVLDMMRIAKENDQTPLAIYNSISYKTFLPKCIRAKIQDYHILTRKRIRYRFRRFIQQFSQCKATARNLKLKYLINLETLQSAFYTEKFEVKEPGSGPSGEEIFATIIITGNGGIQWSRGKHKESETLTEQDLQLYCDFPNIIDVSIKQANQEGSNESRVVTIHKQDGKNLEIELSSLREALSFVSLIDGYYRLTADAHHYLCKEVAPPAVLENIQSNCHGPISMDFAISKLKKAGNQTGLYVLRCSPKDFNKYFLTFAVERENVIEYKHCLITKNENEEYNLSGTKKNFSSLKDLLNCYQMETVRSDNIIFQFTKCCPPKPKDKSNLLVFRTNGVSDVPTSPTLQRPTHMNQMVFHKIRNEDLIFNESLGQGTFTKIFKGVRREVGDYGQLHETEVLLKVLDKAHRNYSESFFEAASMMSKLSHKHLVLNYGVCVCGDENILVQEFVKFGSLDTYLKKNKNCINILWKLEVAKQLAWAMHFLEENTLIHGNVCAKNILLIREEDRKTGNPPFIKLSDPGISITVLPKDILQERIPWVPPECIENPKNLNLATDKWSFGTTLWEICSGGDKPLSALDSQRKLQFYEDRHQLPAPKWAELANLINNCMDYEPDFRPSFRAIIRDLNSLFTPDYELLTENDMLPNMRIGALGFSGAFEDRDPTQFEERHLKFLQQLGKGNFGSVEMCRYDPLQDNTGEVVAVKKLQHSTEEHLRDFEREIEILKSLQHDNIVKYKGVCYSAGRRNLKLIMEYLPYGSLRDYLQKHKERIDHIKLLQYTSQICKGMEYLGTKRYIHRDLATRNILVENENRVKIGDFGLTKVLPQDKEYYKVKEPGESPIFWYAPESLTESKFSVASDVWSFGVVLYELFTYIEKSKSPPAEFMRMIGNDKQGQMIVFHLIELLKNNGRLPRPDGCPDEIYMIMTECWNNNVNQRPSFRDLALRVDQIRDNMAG

## C=CC(=O)N1CC[C@H](COc2cc(-c3ccc(O)c(Cl)c3)cc3[nH]ncc23)C1 [Compound 2-3]
JAK1
  JAK 1 (pKi): E (a pKi value of 7 or below (Ki of 100 nM or above))
JAK3
  JAK 3 (pKi): B (a pKi value between 9 and 10 (Ki between 1 nM and 0.1 nM))
JAK3; [2]
  JAK3 (pKi)-JAK1 (pKi): A (a value of 3 or above)
JAK2
  JAK 2 (pKi): D (a pKi value between 7 and 8 (Ki between 100 nM and 10 nM))
[1]; [3]
  Tall-1 (pIC50): B (a pIC50 value between 6.7 (included) and 7.5 (IC50 between 200 nM and 32 nM))
Tyk2
  Tyk 2 (pKi): E (a pKi value of 7 or below (Ki of 100 nM or above))

## C=CC(=O)N1CCC(Oc2cc(-c3ccc(O)cc3)nc3[nH]ncc23)CC1C (stereo not drawn) [Compound 13-12]
JAK1
  JAK 1 (pKi): E (a pKi value of 7 or below (Ki of 100 nM or above))
JAK3
  JAK 3 (pKi): B (a pKi value between 9 and 10 (Ki between 1 nM and 0.1 nM))
JAK3; [4]
  JAK3 (pKi)-JAK1 (pKi): A (a value of 3 or above)
JAK2
  JAK 2 (pKi): E (a pKi value of 7 or below (Ki of 100 nM or above))
[1]; [5]
  Tall-1 (pIC50): B (a pIC50 value between 6.7 (included) and 7.5 (IC50 between 200 nM and 32 nM))
Tyk2
  Tyk 2 (pKi): E (a pKi value of 7 or below (Ki of 100 nM or above))

## COCCN(C/C=C/C(=O)N1CC(COc2cc(-c3ccc(O)cc3)cc3[nH]ncc23)C1)CCOC [Compound 3-120]
JAK1
  Ki: > 100 nM
JAK3
  Ki: < 0.1 nM
JAK3; [2]
  JAK3 (pKi)-JAK1 (pKi): A (a value of 3 or above)
JAK2
  Ki: 10 to 100 nM
[1]
  IC50: 31.6 to 200 nM
Tyk2
  Ki: > 100 nM

## C=CC(=O)N1CC(COc2cc(-c3ccc(O)c(F)c3)nc3[nH]ncc23)C1 [Compound 3-87]
JAK1
  Ki: > 100 nM
JAK3
  Ki: 0.1 to 1 nM
JAK3; [2]
  JAK3 (pKi)-JAK1 (pKi): A (a value of 3 or above)
JAK2
  Ki: > 100 nM
[1]
  IC50: 31.6 to 200 nM
Tyk2
  Ki: > 100 nM

## C=CC(=O)N1CC(COc2cc(-c3ccc(O)cc3)nc3[nH]ncc23)C1 [Compound 10, 1-(3-(((6-(4-hydroxyphenyl)-1H-pyrazolo[3,4-b]pyridin-4-yl)oxy)methyl)azetidin-1-yl)prop-2-en-1-one]
JAK1
  Ki: > 100 nM
JAK3
  Ki: < 0.1 nM
JAK3; [2]
  JAK3 (pKi)-JAK1 (pKi): A (a value of 3 or above)
JAK2
  Ki: > 100 nM
[1]
  IC50: 31.6 to 200 nM
Tyk2
  Ki: > 100 nM

## C=CC(=O)N1CC[C@H](Oc2cc(-c3cc(F)c(O)cc3C)cc3[nH]ncc23)C1 [Compound 1-16]
JAK1
  Ki: > 100 nM
JAK3
  Ki: 0.1 to 1 nM
JAK3; [2]
  JAK3 (pKi)-JAK1 (pKi): B (a value of 2.3 to 3)
JAK2
  Ki: 10 to 100 nM
[1]
  IC50: 31.6 to 200 nM
Tyk2
  Ki: > 100 nM

## CCC1(COc2nc(-c3ccc(O)cc3)cc3[nH]ncc23)CN(C(=O)/C=C/CN(C)C)C1 [Compound 3-61]
JAK1
  JAK 1 (pKi): E (a pKi value of 7 or below (Ki of 100 nM or above))
JAK3
  JAK 3 (pKi): A (a pKi value≥10 (Ki≤0.1 nM))
JAK3; [2]
  JAK3 (pKi)-JAK1 (pKi): A (a value of 3 or above)
JAK2
  JAK 2 (pKi): D (a pKi value between 7 and 8 (Ki between 100 nM and 10 nM))
[1]; [3]
  Tall-1 (pIC50): A (a pIC50 value≥7.5 (IC50≤32 nM))
Tyk2
  Tyk 2 (pKi): E (a pKi value of 7 or below (Ki of 100 nM or above))

## C=CC(=O)N1CCO[C@@H](C(=O)Nc2cc(-c3ccc(O)c(Cl)c3)cc3[nH]ncc23)C1 [Compound 13-2]
JAK1
  JAK 1 (pKi): E (a pKi value of 7 or below (Ki of 100 nM or above))
JAK3
  JAK 3 (pKi): B (a pKi value between 9 and 10 (Ki between 1 nM and 0.1 nM))
JAK3; [4]
  JAK3 (pKi)-JAK1 (pKi): A (a value of 3 or above)
JAK2
  JAK 2 (pKi): E (a pKi value of 7 or below (Ki of 100 nM or above))
[1]; [5]
  Tall-1 (pIC50): A (a pIC50 value≥7.5 (IC50≤32 nM))
Tyk2
  Tyk 2 (pKi): E (a pKi value of 7 or below (Ki of 100 nM or above))

## CN(C)C/C=C/C(=O)N1CC(F)(COc2nc(-c3ccc(O)cc3)cc3[nH]ncc23)C1 [Compound 3-44]
JAK1
  JAK 1 (pKi): D (a pKi value between 7 and 8 (Ki between 100 nM and 10 nM))
JAK3
  JAK 3 (pKi): B (a pKi value between 9 and 10 (Ki between 1 nM and 0.1 nM))
JAK3; [2]
  JAK3 (pKi)-JAK1 (pKi): B (a value of 2.3 to 3)
JAK2
  JAK 2 (pKi): D (a pKi value between 7 and 8 (Ki between 100 nM and 10 nM))
[1]; [3]
  Tall-1 (pIC50): A (a pIC50 value≥7.5 (IC50≤32 nM))
Tyk2
  Tyk 2 (pKi): E (a pKi value of 7 or below (Ki of 100 nM or above))

## C=CC(=O)N1CC(COc2cc(-c3ccc(O)cc3)cc3[nH]ncc23)C1C (stereo not drawn) [Compound 3-114]
JAK1
  JAK 1 (pKi): E (a pKi value of 7 or below (Ki of 100 nM or above))
JAK3
  JAK 3 (pKi): B (a pKi value between 9 and 10 (Ki between 1 nM and 0.1 nM))
JAK3; [2]
  JAK3 (pKi)-JAK1 (pKi): A (a value of 3 or above)
JAK2
  JAK 2 (pKi): E (a pKi value of 7 or below (Ki of 100 nM or above))
[1]; [3]
  Tall-1 (pIC50): A (a pIC50 value≥7.5 (IC50≤32 nM))
Tyk2
  Tyk 2 (pKi): E (a pKi value of 7 or below (Ki of 100 nM or above))

## CN(C)C/C=C/C(=O)N1CC(F)(COc2cc(-c3ccc(O)c(Cl)c3)nc3[nH]ncc23)C1 [Compound 3-52]
JAK1
  JAK 1 (pKi): E (a pKi value of 7 or below (Ki of 100 nM or above))
JAK3
  JAK 3 (pKi): B (a pKi value between 9 and 10 (Ki between 1 nM and 0.1 nM))
JAK3; [2]
  JAK3 (pKi)-JAK1 (pKi): A (a value of 3 or above)
JAK2
  JAK 2 (pKi): E (a pKi value of 7 or below (Ki of 100 nM or above))
[1]; [3]
  Tall-1 (pIC50): B (a pIC50 value between 6.7 (included) and 7.5 (IC50 between 200 nM and 32 nM))
Tyk2
  Tyk 2 (pKi): E (a pKi value of 7 or below (Ki of 100 nM or above))
